34 compounds from patent EP4799619A1, “COMPOUND TARGETING EGR-1 AND USE THEREOF FOR TREATMENT OF ATOPIC DERMATITIS” (AgeraMedi, Inc., priority 2023, dated 2025) can be followed below.

SMILES strings stand for the structures.

EGR-1, sequence (P18146 whole entry): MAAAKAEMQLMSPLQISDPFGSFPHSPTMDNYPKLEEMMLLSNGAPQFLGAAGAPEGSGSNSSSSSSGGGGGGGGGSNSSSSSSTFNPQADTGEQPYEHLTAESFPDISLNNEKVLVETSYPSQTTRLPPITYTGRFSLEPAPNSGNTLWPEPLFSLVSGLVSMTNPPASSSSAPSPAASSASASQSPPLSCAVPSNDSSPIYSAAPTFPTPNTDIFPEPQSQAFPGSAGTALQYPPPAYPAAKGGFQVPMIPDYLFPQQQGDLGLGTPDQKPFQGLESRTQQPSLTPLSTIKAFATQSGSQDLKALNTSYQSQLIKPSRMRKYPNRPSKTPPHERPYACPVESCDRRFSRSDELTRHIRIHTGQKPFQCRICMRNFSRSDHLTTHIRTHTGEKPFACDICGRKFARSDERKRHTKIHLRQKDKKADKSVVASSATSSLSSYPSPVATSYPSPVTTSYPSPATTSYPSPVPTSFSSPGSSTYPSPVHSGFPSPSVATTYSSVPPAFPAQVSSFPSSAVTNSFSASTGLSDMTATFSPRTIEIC

This assay addresses EGR-1 (Homo sapiens, UniProt P18146). In words: EGR-1 DNA binding activity assay (EDBA). To be noted: EGR-1 DNA binding inhibitory activity; EGR-1 overexpressing cell lysate; absorbance at 450 nm; compound concentration not given. The arrangement: made in house. The method, then: In this experiment, the inhibitory effect of the compounds of the present invention on EGR-1 binding activity was evaluated using an EGR-1 DNA binding activity assay (EDBA).
Single-stranded sense and antisense oligonucleotides of the following EGR-1 binding sequence (EBS) were prepared by outsourcing to Bioneer Co., Ltd. (Daejeon, Korea). In this case, the 5'-end of the sense oligonucleotide was labeled with biotin. The sense and antisense oligonucleotides were heated at 95 °C for 5 minutes and then left overnight at room temperature to hybridize the sense and antisense oligonucleotides. Hereinafter, the hybridized sense and antisense oligonucleotides are referred to as biotin-EBS. • Sense sequence: biotin-5'-[…]-3' • Antisense sequence: 5'-[…]-3'
Avidin protein was coated on a 96-well plate (purchased from Thermo Fisher Scientific), and biotin-EBS was added to the plate at a concentration of 0.5 pmol/50 µL/well, followed by reaction at 37 °C for 1 hour to allow biotin-EBS oligonucleotide to be attached to the plate. After washing three times with phosphate buffer saline containing 0.05% Tween 20 (PBS/Tween 20) to remove unattached biotin-EBS oligonucleotides, 200 µL of PBS/Tween 20 solution containing 2% bovine serum albumin (BSA) was added to each well, followed by reaction at 37 °C for 1 hour to block the surface of the plate where no oligonucleotide was attached.
The solution containing the sample compound and the EGR-1 protein was added to the biotin-EBS oligonucleotide coated plate prepared in step (2).
The compound sample (1 µL) was reacted with the EGR-1 overexpressing cell lysate containing 10 mM Tris, pH 7.5, 50 mM KCl, 2% BSA and 8% glycerol at room temperature for 30 minutes, and then added to a reaction well coated with biotin-EBS and further reacted at room temperature for one hour. After washing three times with PBS/Tween 20 solution, an EGR-1 antibody was added to the PBS solution supplemented with 2% BSA and 5 mM NaCl in an amount of 50 µL per each well. The mixture was incubated at room temperature for one hour, washed three times with PBS/Tween 20 solution, and then treated with horseradish peroxidase-conjugated secondary antibody (Goat anti-rabbit IgG antibody, Cell Signaling Technology company, Danvers, Mass., USA) diluted by 1:1000 at room temperature for one hour. After washing five times with PBS/Tween 20 solution, a substrate tetramethylbenzidine solution was added to each well in an amount of 50 µL. After reacting for 5 minutes, the reaction was stopped by adding 100 µL of 2 N sulfuric acid solution. The DNA binding inhibitory activity of EGR-1 was measured by absorbance at 450 nm according to Equation 1 below. EGR-1 DNA binding inhibitory activity (%) = 100−{(As/Ap)×100} [formula]
As: absorbance of a sample prepared by reacting an EGR-1-overexpressing cell lysate with the compound.
Ap: absorbance of the sample treated only with EGR-1-overexpressing cell lysate.
Regarding `O=C1Nc2cccc(Br)c2/C1=N/NC(=S)Nc1ccc([N+](=O)[O-])cc1` [Compound 37, (Z)-2-(4-bromo-2-oxoindolin-3-ylidene)-N-(4-nitrophenyl)hydrazinethioamide], the “Inhibition Rate (%)” value amounted to 36.33%.

Regarding `O=C1Nc2ccc(Br)cc2/C1=N/NC(=S)Nc1ccc([N+](=O)[O-])cc1` [Compound 38, (Z)-2-(5-bromo-2-oxoindolin-3-ylidene)-N-(4-nitrophenyl)hydrazinethioamide], the “Inhibition Rate (%)” value turned out to be 51.33%.

In the case of `COc1ccccc1NC(=S)N/N=C1\C(=O)Nc2ccccc21` [Compound 39, (Z)-N-(2-methoxyphenyl)-2-(2-oxoindolin-3-ylidene)hydrazinethioamide], the “Inhibition Rate (%)” value is 47.33%.

With `NC(=S)N/N=C1\C(=O)Nc2cccc(Br)c21` [Compound 40, (Z)-2-(4-bromo-2-oxoindolin-3-ylidene)hydrazinethioamide], the “Inhibition Rate (%)” value stood at 27.33%.

For the compound `NC(=S)N/N=C1\C(=O)Nc2cc(Br)ccc21` [Compound 41, (Z)-2-(6-bromo-2-oxoindolin-3-ylidene)hydrazinethioamide], the “Inhibition Rate (%)” value is recorded as 49.00%.

For the compound `NC(=S)N/N=C1\C(=O)Nc2c(Br)cccc21` [Compound 42, (Z)-2-(7-bromo-2-oxoindolin-3-ylidene)hydrazinethioamide], the “Inhibition Rate (%)” value is recorded as 53.00%.

`O=C1Nc2cccc(Br)c2/C1=N/NC(=S)Nc1ccccc1` [Compound 43, (Z)-2-(4-bromo-2-oxoindolin-3-ylidene)-N-phenylhydrazinethioamide]: the “Inhibition Rate (%)” value was determined as 23.00%.

For the compound `O=C1Nc2ccc(Br)cc2/C1=N/NC(=S)Nc1ccccc1` [Compound 44, (Z)-2-(5-bromo-2-oxoindolin-3-ylidene)-N-phenylhydrazinethioamide], the “Inhibition Rate (%)” value worked out at 5.67%.

On to `O=C1Nc2cc(Br)ccc2/C1=N/NC(=S)Nc1ccccc1` [Compound 45, (Z)-2-(6-bromo-2-oxoindolin-3-ylidene)-N-phenylhydrazinethioamide], for which the “Inhibition Rate (%)” value was 9.33%.

Turning to `O=C1Nc2c(Br)cccc2/C1=N/NC(=S)Nc1ccccc1` [Compound 46, (Z)-2-(7-bromo-2-oxoindolin-3-ylidene)-N-phenylhydrazinethioamide], the “Inhibition Rate (%)” value came out at 11.33%.

Turning to `O=C1Nc2ccccc2/C1=N/NC(=S)Nc1cccc([N+](=O)[O-])c1` [Compound 47, (Z)-N-(3-nitrophenyl)-2-(2-oxoindolin-3-ylidene)hydrazinethioamide], the “Inhibition Rate (%)” value was 35.33%.

As to `O=C1Nc2ccc(Br)cc2/C1=N/NC(=S)Nc1cccc([N+](=O)[O-])c1` [Compound 48, (Z)-2-(5-bromo-2-oxoindolin-3-ylidene)-N-(3-nitrophenyl)hydrazinethioamide], the “Inhibition Rate (%)” value was 52.00%.

Consider `O=C1Nc2c(Br)cccc2/C1=N/NC(=S)Nc1cccc([N+](=O)[O-])c1` [Compound 49, (Z)-2-(7-bromo-2-oxoindolin-3-ylidene)-N-(3-nitrophenyl)hydrazinethioamide], for which the “Inhibition Rate (%)” value was determined as 50.33%.

Consider `COc1cccc(NC(=S)N/N=C2\C(=O)Nc3ccccc32)c1` [Compound 50, (Z)-N-(3-methoxyphenyl)-2-(2-oxoindolin-3-ylidene)hydrazinethioamide], for which the “Inhibition Rate (%)” value was 27.33%.

`COc1cccc(NC(=S)N/N=C2\C(=O)Nc3cccc(Br)c32)c1` [Compound 51, (Z)-2-(4-bromo-2-oxoindolin-3-ylidene)-N-(3-methoxyphenyl)hydrazinethioamide]: the “Inhibition Rate (%)” value is 28.67%.

As for `COc1cccc(NC(=S)N/N=C2\C(=O)Nc3ccc(Br)cc32)c1` [Compound 52, (Z)-2-(5-bromo-2-oxoindolin-3-ylidene)-N-(3-methoxyphenyl)hydrazinethioamide], the “Inhibition Rate (%)” value was 9.00%.

Turning to `COc1ccc(NC(=S)N/N=C2\C(=O)Nc3ccccc32)cc1` [Compound 53, (Z)-N-(4-methoxyphenyl)-2-(2-oxoindolin-3-ylidene)hydrazinethioamide], the “Inhibition Rate (%)” value is 10.00%.

On to `COc1ccc(NC(=S)N/N=C2\C(=O)Nc3cccc(Br)c32)cc1` [Compound 54, (Z)-2-(4-bromo-2-oxoindolin-3-ylidene)-N-(4-methoxyphenyl)hydrazinethioamide], for which the “Inhibition Rate (%)” value came out at 12.67%.

For the compound `COc1ccc(NC(=S)N/N=C2\C(=O)Nc3ccc(Br)cc32)cc1` [Compound 55, (Z)-2-(5-bromo-2-oxoindolin-3-ylidene)-N-(4-methoxyphenyl)hydrazinethioamide], the “Inhibition Rate (%)” value is given as 11.00%.

Consider `COc1ccc(NC(=S)NN)cc1OC` [Compound 56, N-(3,4-dimethoxyphenyl)hydrazinethioamide], for which the “Inhibition Rate (%)” value came to 12.67%.

For the compound `O=C1Nc2ccccc2/C1=N/NC(=S)Nc1ccc(F)cc1` [Compound 57, (Z)-N-(4-fluorophenyl)-2-(2-oxoindolin-3-ylidene)hydrazinethioamide], the “Inhibition Rate (%)” value came out at 40.10%.

As to `O=C1Nc2cc(Br)ccc2/C1=N/NC(=S)Nc1ccc([N+](=O)[O-])cc1` [Compound 58, (Z)-2-(6-bromo-2-oxoindolin-3-ylidene)-N-(4-nitrophenyl)hydrazinethioamide], the “Inhibition Rate (%)” value was 46.97%.

As for `O=C1Nc2cccc(Cl)c2/C1=N/NC(=S)Nc1ccccc1` [Compound 59, (Z)-2-(4-chloro-2-oxoindolin-3-ylidene)-N-phenylhydrazinethioamide], the “Inhibition Rate (%)” value came to 40.17%.

For the compound `O=C1Nc2cc(Cl)ccc2/C1=N/NC(=S)Nc1ccccc1` [Compound 60, (Z)-2-(6-chloro-2-oxoindolin-3-ylidene)-N-phenylhydrazinethioamide], the “Inhibition Rate (%)” value is 48.07%.

As for `COc1ccccc1NC(=S)N/N=C1\C(=O)Nc2cccc(Cl)c21` [Compound 61, (Z)-2-(4-chloro-2-oxoindolin-3-ylidene)-N-(2-methoxyphenyl)hydrazinethioamide], the “Inhibition Rate (%)” value was found to be 43.03%.

For `O=C1Nc2ccc(F)cc2/C1=N/NC(=S)Nc1cccc(C(F)(F)F)c1` [Compound 62, (Z)-2-(5-fluoro-2-oxoindolin-3-ylidene)-N-(3-(trifluoromethyl)phenyl)hydrazinethioamide], the “Inhibition Rate (%)” value is 10.00%.

With `O=C1Nc2ccc(F)cc2/C1=N/NC(=S)NCc1ccccc1` [Compound 63, (Z)-N-benzyl-2-(5-fluoro-2-oxoindolin-3-ylidene)hydrazinethioamide], the “Inhibition Rate (%)” value is listed as 48.77%.

For `Cc1cccc(NC(=S)N/N=C2\C(=O)Nc3ccc(F)cc32)c1` [Compound 64, (Z)-2-(5-fluoro-2-oxoindolin-3-ylidene)-N-(m-tolyl)hydrazinethioamide], the “Inhibition Rate (%)” value was 37.90%.

As to `O=C1Nc2c(F)cccc2/C1=N/NC(=S)Nc1ccc([N+](=O)[O-])cc1` [Compound 65, (Z)-2-(7-fluoro-2-oxoindolin-3-ylidene)-N-(4-nitrophenyl)hydrazinethioamide], the “Inhibition Rate (%)” value came to 43.03%.

On to `COc1ccc2c(c1)NC(=O)/C2=N\NC(=S)Nc1cccc(C(F)(F)F)c1` [Compound 66, (Z)-2-(6-methoxy-2-oxoindolin-3-ylidene)-N-(3-(trifluoromethyl)phenyl)hydrazinethioamide], for which the “Inhibition Rate (%)” value is 11.70%.

With `COc1ccc2c(c1)NC(=O)/C2=N\NC(=S)Nc1ccc(F)cc1` [Compound 67, (Z)-N-(4-fluorophenyl)-2-(6-methoxy-2-oxoindolin-3-ylidene)hydrazin-1-carbothioamide], the “Inhibition Rate (%)” value is reported as 25.90%.

For `COc1ccc2c(c1)NC(=O)/C2=N\NC(=S)Nc1ccc(Br)cc1` [Compound 68, (Z)-N-(4-bromophenyl)-2-(6-methoxy-2-oxoindolin-3-ylidene)hydrazin-1-carbothioamide], the “Inhibition Rate (%)” value came to 17.80%.

Turning to `COc1ccc2c(c1)NC(=O)/C2=N\NC(=S)NCc1ccccc1` [Compound 69, (Z)-N-benzyl-2-(6-methoxy-2-oxoindolin-3-ylidene)hydrazin-1-carbothioamide], the “Inhibition Rate (%)” value was determined as 14.17%.

On to `Cc1ccc2c(c1)/C(=N/NC(=S)Nc1ccc(Br)cc1)C(=O)N2` [Compound 70, (Z)-N-(4-bromophenyl)-2-(5-methyl-2-oxoindolin-3-ylidene)hydrazinethioamide], for which the “Inhibition Rate (%)” value worked out at 29.60%.
